Laboratory results reported in US10183946B2, “Triazolo[4,5-D]pyrimidines” (Hoffmann—La Roche Inc., priority 2014, dated 2019).

Legend:
human CB2 receptors = human CB2 receptors (Homo sapiens (Human), UniProt P34972); assay: cAMP assay, CHO cells expressing human CB2 receptors; assay type: cell-based; conditions: functional cAMP assay, read-out: CB2 hcAMP EC50
Procedure: (§1) CHO cells expressing human CB1 or CB2 receptors are seeded 17-24 hours prior to the experiment 50.000 cells per well in a black 96 well plate with flat clear bottom (Corning Costar #3904) in DMEM (Invitrogen No. 31331), 1×HT supplement, with 10% fetal calf serum and incubated at 5% CO2 and 37° C. in a humidified incubator. The growth medium was exchanged with Krebs Ringer Bicarbonate buffer with 1 mM IBMX and incubated at 30° C. for 30 min. Compounds were added to a final assay volume of 100 μl and incubated for 30 min at 30° C. Using the cAMP-Nano-TRF detection kit the assay (Roche Diagnostics) was stopped by the addition of 50 μl lysis reagent (Tris, NaCl, 1.5% Triton X100, 2.5% NP40, 10% NaN3) and 50 μl detection solutions (20 μM mAb Alexa700-cAMP 1:1, and 48 μM Ruthenium-2-AHA-cAMP) and shaken for 2 h at room temperature. The time-resolved energy transfer is measured by a TRF reader (Evotec Technologies GmbH), equipped with a ND:YAG laser as excitation source. The plate is measured twice with the excitation at 355 nm and at the emission with a delay of 100 ns and a gate of 100 ns, total exposure time 10 s at 730 (bandwidth 30 nm) or 645 nm (bandwidth 75 nm), respectively. The FRET signal is calculated as follows: FRET=T730-Alexa730-P(T645-B645) with P=Ru730-B730/Ru645-B645, where T730 is the test well measured at 730 nM, T645 is the test well measured at 645 nm, B730 and B645 are the buffer controls at 730 nm and 645 nm, respectively. cAMP content is determined from the function of a standard curve spanning from 10 μM to 0.13 nM cAMP.
(§2) EC50 values were determined using Activity Base analysis (ID Business Solution, Limited). The EC50 values for a wide range of cannabinoid agonists generated from this assay were in agreement with the values published in the scientific literature.

human CB1 receptors = human CB1 receptors (Homo sapiens (Human), UniProt P21554); assay: cAMP assay, CHO cells expressing human CB1 receptors; assay type: cell-based; conditions: functional cAMP assay, CHO cells expressing human CB1; read-out: CB1 hcAMP EC50
Procedure: as §1, §2

Sequence of human CB2 receptors (P34972 whole entry): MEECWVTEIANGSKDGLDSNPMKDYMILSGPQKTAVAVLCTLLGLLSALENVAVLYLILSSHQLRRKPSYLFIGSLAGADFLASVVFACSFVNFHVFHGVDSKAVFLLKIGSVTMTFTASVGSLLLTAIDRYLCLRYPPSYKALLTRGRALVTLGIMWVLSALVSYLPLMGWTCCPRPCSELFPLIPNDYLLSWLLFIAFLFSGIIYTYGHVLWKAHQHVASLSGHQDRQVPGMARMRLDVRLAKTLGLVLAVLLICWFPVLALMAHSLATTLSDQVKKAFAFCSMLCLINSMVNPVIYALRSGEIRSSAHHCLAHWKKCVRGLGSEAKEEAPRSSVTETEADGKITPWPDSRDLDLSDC
Sequence of human CB1 receptors (P21554 whole entry): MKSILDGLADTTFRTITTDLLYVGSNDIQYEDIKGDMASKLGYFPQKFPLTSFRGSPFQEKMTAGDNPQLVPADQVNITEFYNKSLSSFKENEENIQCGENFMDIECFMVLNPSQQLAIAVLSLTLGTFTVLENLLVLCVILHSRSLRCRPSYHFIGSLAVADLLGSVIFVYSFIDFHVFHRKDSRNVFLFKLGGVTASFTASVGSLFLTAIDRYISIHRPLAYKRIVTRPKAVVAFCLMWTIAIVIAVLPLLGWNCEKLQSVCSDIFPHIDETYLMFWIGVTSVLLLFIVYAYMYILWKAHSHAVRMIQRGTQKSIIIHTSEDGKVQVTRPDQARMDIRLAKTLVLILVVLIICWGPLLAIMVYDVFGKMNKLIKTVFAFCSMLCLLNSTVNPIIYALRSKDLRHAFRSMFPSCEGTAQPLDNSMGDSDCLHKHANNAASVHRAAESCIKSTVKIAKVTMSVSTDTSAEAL

SMILES	EC50 (human CB2 receptors) [nM]	EC50 (human CB1 receptors) [µM]
Cn1nccc1-c1nc(C(C)(C)C)nc2c1nnn2Cc1ccccc1Cl [Example 9, 5-tert-butyl-3-[(2-chlorophenyl)methyl]-7-(2-methylpyrazol-3-yl)triazolo[4,5-d]pyrimidine]	44.3	> 10
CC(C)(C)c1nc(C2(O)CCC2)c2nnn(Cc3ccccc3)c2n1 [Example 31, 1-(3-Benzyl-5-tert-butyltriazolo[4,5-d]pyrimidin-7-yl)cyclobutan-1-ol]	4.5	0.645
CCC(O)(CC)c1nc(C(C)(C)C)nc2c1nnn2Cc1ccccc1Cl [Example 38, 3-[5-tert-Butyl-3-[(2-chlorophenyl)methyl]triazolo[4,5-d]pyrimidin-7-yl]pentan-3-ol]	45.3	> 10
CC(C)(C)c1nc2c(nnn2Cc2ccccc2Cl)c([C@]2(O)C[C@@H](C(F)F)C2)n1 [Example 41, Cis-1-[5-tert-Butyl-3-[(2-chlorophenyl)methyl]triazolo[4,5-d]pyrimidin-7-yl]-3-(difluoromethyl)cyclobutanol]	30.5	> 10
CC(C)(C)c1nc(C2=CCCC2)c2nnn(Cc3ccccc3Cl)c2n1 [Example 44, 5-tert-Butyl-3-[(2-chlorophenyl)methyl]-7-(cyclopenten-1-yl)triazolo[4,5-d]pyrimidine]	4	> 10
COc1ccc(-c2nc(C(C)(C)C)nc3c2nnn3Cc2ccccc2Cl)cc1 [Example 3, 5-tert-butyl-3-[(2-chlorophenyl)methyl]-7-(4-methoxyphenyl)triazolo[4,5-d]pyrimidine]	239	> 10
CC(C)(C)c1nc(C2(O)CCC2)c2nnn(Cc3ccccc3Cl)c2n1 [Example 33, 1-[5-tert-Butyl-3-[(2-chlorophenyl)methyl]triazolo[4,5-d]pyrimidin-7-yl]cyclobutanol]	233	> 10
CC(C)(C)c1nc(C2(O)CSC2)c2nnn(Cc3ccccc3Cl)c2n1 [Example 39, 3-[5-tert-Butyl-3-[(2-chlorophenyl)methyl]triazolo[4,5-d]pyrimidin-7-yl]thietan-3-ol]	168	> 10
CC(C)(C)c1nc2c(nnn2Cc2ccccc2Cl)c([C@]2(O)C[C@H](C(F)F)C2)n1 [Example 40, Trans-1-[5-tert-Butyl-3-[(2-chlorophenyl)methyl]triazolo[4,5-d]pyrimidin-7-yl]-3-(difluoromethyl)cyclobutanol]	9.8	1.81
CC(C)(C)c1nc(C2(O)C[S+]([O-])C2)c2nnn(Cc3ccccc3Cl)c2n1 (stereo not shown) [Example 42, 3-[5-tert-Butyl-3-[(2-chlorophenyl)methyl]triazolo[4,5-d]pyrimidin-7-yl]-1-oxo-thietan-3-ol]	110	> 10
Cn1nccc1-c1nc(C(C)(C)C)nc2c1nnn2Cc1nnnn1C [Example 13, 5-tert-butyl-7-(2-methylpyrazol-3-yl)-3-[(1-methyltetrazol-5-yl)methyl]triazolo[4,5-d]pyrimidine]	33.3	> 10
Cc1ccc(-c2nc(C(C)(C)C)nc3c2nnn3Cc2ccccc2Cl)nc1 [Example 7, 5-tert-butyl-3-[(2-chlorophenyl)methyl]-7-(5-methylpyridin-2-yl)triazolo[4,5-d]pyrimidine]	488	> 10
Cc1ccc(-c2nc(C(C)(C)C)nc3c2nnn3Cc2ccccc2Cl)cc1 [Example 1, 5-tert-butyl-3-[(2-chlorophenyl)methyl]-7-(4-methylphenyl)triazolo[4,5-d]pyrimidine]	206	> 10
Cc1nnc(Cn2nnc3c(-c4ccnn4C)nc(C(C)(C)C)nc32)o1 [Example 15, 2-[[5-tert-butyl-7-(2-methylpyrazol-3-yl)triazolo[4,5-d]pyrimidin-3-yl]methyl]-5-methyl-1,3,4-oxadiazole]	317	> 10
Cn1nccc1-c1nc(C(C)(C)C)nc2c1nnn2CC(O)CC(F)(F)F (stereo not shown) [Example 16, 1-[5-tert-butyl-7-(2-methylpyrazol-3-yl)triazolo[4,5-d]pyrimidin-3-yl]-4,4,4-trifluorobutan-2-ol]	42.4	> 10
CC(C)(C)c1nc(C2(F)CCC2)c2nnn(Cc3ccccc3)c2n1 [Example 32, 3-Benzyl-5-tert-butyl-7-(1-fluorocyclobutyl)triazolo[4,5-d]pyrimidine]	24	> 10
CC(C)(C)c1nc(-c2ccc(F)nc2)c2nnn(Cc3ccccc3Cl)c2n1 [Example 6, 5-tert-butyl-3-[(2-chlorophenyl)methyl]-7-(6-fluoropyridin-3-yl)triazolo[4,5-d]pyrimidine]	2.7	> 10
